One data set relates to RXR receptors. The note with it: cited from earlier work.
The next data set deals with RAR receptors. The note with it: cited from earlier work; for RAR isotype selectivity: in vitro binding assays.
Data set [1] concerns the target T1, RXR-associated protein kinase in Flag-RXR immunocomplexes (Homo sapiens, UniProt P19793).
T1 construct: expressed in transfected cells; host or cells: HEK 293
T1 sequence (P19793 1-462): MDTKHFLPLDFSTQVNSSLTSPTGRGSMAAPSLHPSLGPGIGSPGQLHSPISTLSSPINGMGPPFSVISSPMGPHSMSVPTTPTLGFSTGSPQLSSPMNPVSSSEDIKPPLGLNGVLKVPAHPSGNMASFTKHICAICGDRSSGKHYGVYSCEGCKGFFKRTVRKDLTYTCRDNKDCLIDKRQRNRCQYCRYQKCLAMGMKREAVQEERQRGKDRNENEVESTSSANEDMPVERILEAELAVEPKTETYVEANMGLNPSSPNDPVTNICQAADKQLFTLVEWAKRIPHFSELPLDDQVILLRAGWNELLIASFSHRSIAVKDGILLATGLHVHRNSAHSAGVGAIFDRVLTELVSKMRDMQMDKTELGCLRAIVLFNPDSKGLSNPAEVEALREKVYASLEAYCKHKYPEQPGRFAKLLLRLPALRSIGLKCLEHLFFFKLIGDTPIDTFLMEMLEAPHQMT
In words: In vitro kinase reaction with [γ-32P]ATP on Flag-RXR immunocomplexes from transfected HEK 293 cells. Conditions: transfected HEK 293 cells treated with ligand before anti-Flag immunoprecipitation. In kind it is cell-based. An excerpt:
Total cell lysates were immunoprecipitated with anti-Flag antibody (M2). Aliquots of the immunocomplexes were used for the in vitro kinase reaction with [γ-^32P]ATP and separated on SDS-PAGE. Phosphorylated proteins were detected by autoradiography (top panel). Additional aliquots of the immunocomplexes were subjected to immunoblotting with polyclonal anti-RXR antisera (D20; bottom panel). (B) Phosphoamino acid analysis. Flag-RXR and the 160-kDa protein were phosphorylated in vitro and separated on SDS-PAGE as described above, then transferred onto PVDF membrane, detected by autoradiography, and cut out for hydrolysis with acid (6 N HCl). The phosphorylated amino acids and standards (P-Ser, P-Thr, and P-Tyr) were separated by thin-layer chromatography. Positions of the standards P-Ser, P-Thr, and P-Tyr were visualized by ninhydrin staining and are indicated by arrows. (C) In vivo metabolic labeling of transfected HEK 293 cells. […] Cells were washed with phosphate-free medium and starved for 90 minutes before incubation with [^32P]orthophosphate for another 4 hours. […] Total cell lysates were immunoprecipitated with anti-Flag antibody (M2) and subjected to separation on SDS-PAGE. Phosphorylated proteins were detected by autoradiography.
Total cell lysates were subjected to immunoprecipitation, and the in vitro kinase reaction performed as described above.
Cell lysis, immunoprecipitation with anti-Flag (M2), in vitro kinase assay, and detection of the phosphorylated proteins in the RXRα immunoprecipitated complexes were performed as described above.
Cell culture and transient transfection was performed as follows. HEK 293 cells were grown in Dulbecco's modified Eagle's medium (DMEM) supplemented with 10% fetal bovine serum (FBS), 100U of penicillin per ml and 10 μg of streptomycion per ml at 37° C. in 5% CO2. For expression of RXR protein, 100-mm dishes of cells were transfected at 50% confluence with 2 μg of plasmid DNA using Lipofectamine (Life Technologies) as specified by the manufacturer. At 32 hours post-transfection, cells were starved by incubating in DMEM medium with 2.5% charcoal-treated fetal bovine serum or 0.1-0.5% calf bovine serum overnight, and then treated with indicated agents. Cells were harvested by aspirating medium, rinsing in phosphate buffered saline (PBS), and extracting into Lysis Buffer (30 mM Tris-HCL, pH 7.4, 0.5% Nonidet P-40, 10% glycerol, 150 mM NaCl, 1 mM EDTA, 40 mM NaF, 1 mM sodium orthovanadate, and 0.5 mM phenylmethylsufonyl fluoride, and 1× protease inhibitors, (Roche Diagnostics) or 1×SDS Sample Buffer.
Immunoprecipitation was performed essentially as follows. Cells were solubilized in cold Lysis Buffer and subsequently clarified by centrifugation at 20,000 g for 10 minutes at 4° C. Immunoprecipitations were performed at 4° C. by incubating clarified cell extracts with the indicated antibodies (2 μg/ml) and protein A/G-agarose beads (1:30 dilution of a 50% suspension) on a rotating wheel for 4 hours to overnight. Agarose beads were pelleted by low speed centrifugation and washed extensively with ice-cold Lysis Buffer.
Protein kinase assays were performed as follows. Immunoprecipitated complexes were resuspended in 15 μl of Kinase Assay Buffer (30 mM Tris-HCl, pH 7.4 and 10 mM MgCl2). Kinase reactions were initiated by addition of 2.5 μl of 50 μM [γ-^32P]ATP (10 μCi) to the immune-complexes, followed by incubation at 25° C. with occasional shaking for 20 minutes, and terminated by addition of 6 μl 4×SDS Sample Buffer. After heating at 100° C. for 5 minutes, the reaction mixtures were resolved by 4-12% SDS-PAGE. Incorporation of ^32P into RXR or other proteins was determined by autoradiography.

The next data set concerns protein kinase A. The note with it: selected protein kinase A synthetic substrates; cited from earlier work.
The target in data set [2] is Flag-tagged PH-RXRα (Flag tag, pleckstrin homology domain of human insulin receptor substrate-1, human RXRα) (UniProt P35568).

Where no end group is shown, it is not given here. [ ]: non-standard residue; d: D form. hArg = N=C(N)NCCCC[C@H](N)C(=O)O

In the case of `CC1=C(/C=C/C(C)=C\C=C\C(C)=C\C(=O)O)C(C)(C)CCC1` [9-cis RA, 9-cis-retinoic acid], the “binding to RXR receptors” value in the data set on RXR receptors was “RXR receptor ligand”. For the same compound, the “binding to RAR receptors” value with RAR receptors is “binds to the RAR receptors”.
As to `CC1(C)CCC(C)(C)c2cc(C3(c4ccc(C(=O)O)cn4)CC3)ccc21` [AGN195029], the “phosphorylation of RXR and 160 kDa protein in Flag-RXR immunocomplexes” value (shortened to “phosphorylation”) in data set [1] was “contained a kinase phosphorylated RXR and a 160 kDa protein”.
Take `CC1(C)CCC(C)(C)c2c1cc(C(=O)Nc1cc(F)c(C(=O)O)c(F)c1)c(O)c2Cl` [AGN195183]: the “phosphorylation” value in data set [1] is given as “not stimulated”.
Take `CC[C@]1(c2ccc3c(c2)C(C)(C)CCC3(C)C)C[C@H]1/C=C/C(C)=C/C(=O)O` [AGN195184]: in data set [1], the “phosphorylation” value is “contained a kinase phosphorylated RXR and a 160 kDa protein”.
As for `CCC[C@]1(c2ccc3c(c2)C(C)(C)CCC3(C)C)C[C@H]1/C=C/C(C)=C/C(=O)O` [AGN195203], in data set [1], the “phosphorylation” value is “contained a kinase phosphorylated RXR and a 160 kDa protein”.
Regarding `CCCCCCOc1c(\C(C)=C/C=C/C(C)=C/C(=O)O)cc(C(C)C)cc1C(C)C` [AGN195393], the “phosphorylation” value in data set [1] was “neither RXR nor the 160 kDa protein was phosphorylated”.
In the case of `CC1(C)CCSc2ccc(C#Cc3ccc(C(=O)O)cn3)cc21` [AGN 190299], in the data set with RAR receptors, the RAR isotype selectivity entry is on record as “RARβ/γ selective”.
On to `CC1=C(/C=C/C(C)=C/C=C/C(C)=C/C(=O)O)C(C)(C)CCC1` [ATRA, All trans-retinoic acid], for which the “binding to RXR receptors” value in the data set on RXR receptors is recorded as “does not bind the RXR receptors”. Also, the “binding to RAR receptors” value with RAR receptors is recorded as “physiological hormone for the RAR receptors”.
With `CC1(C)CCC(C)(C)c2cc(NC(=O)c3ccc(C(=O)O)cc3)ccc21` [Am 80], in the data set on RAR receptors, the RAR isotype selectivity result is recorded as “RARα-selective”.
For the compound `CC1(C)CCC(C)(C)c2cc(C(=O)Nc3ccc(C(=O)O)cc3)ccc21` [Am 580], in the data set on RAR receptors, the RAR isotype selectivity result is reported as “RARα-selective”.
`Cc1cc2c(cc1C1(c3ccc(C(=O)O)cn3)CC1)C(C)(C)CCC2(C)C` [LG 100268]: the “binding to RXR receptors” value in the data set with RXR receptors was “binding to all three RXRs”. For the same compound, the “binding to RAR receptors” value in the data set with RAR receptors was “not to any of the RAR isotypes”.
As to `CC(C)=C(c1ccc(C(=O)O)cc1)c1ccc2c(c1)C(C)(C)CCC2(C)C` [SR 11217], in the data set with RXR receptors, the “binding to RXR receptors” value is “binding to all three RXRs”. Also, the “binding to RAR receptors” value in the data set with RAR receptors is “not to any of the RAR isotypes”.
For the compound `CC1(C)CCC(C)(C)c2cc(C3(c4ccc(C(=O)O)cc4)OCCO3)ccc21` [SR 11237], in the data set with RXR receptors, the “binding to RXR receptors” value is “binding to all three RXRs”. In addition, the “binding to RAR receptors” value with RAR receptors is reported as “not to any of the RAR isotypes”.
With `C/C(=C\c1ccc(C(=O)O)cc1)c1ccc2c(c1)C(C)(C)CCC2(C)C` [TTNPB], in data set [1], the “phosphorylation” value is on record as “neither RXR nor the 160 kDa protein was phosphorylated”. Besides, the “binding to RXR receptors” value in the data set with RXR receptors is given as “not RXRs”. Also, in the data set on RAR receptors, the “binding to RAR receptors” value is “binds RARs”.
Regarding “A R T K R S G S V (ARTKRSGSV) [SEQ ID NO.: 98, protein kinase A synthetic substrate]”, the Km in the data set with protein kinase A is 10 µM.
In the case of “G R G L S L S R (GRGLSLSR) [SEQ ID NO.: 90, protein kinase A synthetic substrate]”, the Km with protein kinase A was 240 µM.
Regarding “L H R A S L G (LHRASLG) [SEQ ID NO.: 101, protein kinase A synthetic substrate]”, the Km in the data set with protein kinase A is 415 µM.
With “L R K A S L G (LRKASLG) [SEQ ID NO.: 100, protein kinase A synthetic substrate]”, the Km with protein kinase A was 260 µM.
For the compound “L R R A S L (LRRASL) [SEQ ID NO.: 96, protein kinase A synthetic substrate]”, the Km in the data set with protein kinase A is 57 µM.
“L R R A S V A (LRRASVA) [SEQ ID NO.: 91, protein kinase A synthetic substrate]”: the Km in the data set with protein kinase A was above 10 µM.
“L X^aR A S L G (L[hArg]RASLG) [SEQ ID NO.: 102, protein kinase A synthetic substrate, X = homoarginine]”: the Km in the data set on protein kinase A is 350 µM.
For the compound LRRASLG [SEQ ID NO.: 94, L R R A S L G], the Km in the data set on protein kinase A is 16 µM.
As to “R R A S F (RRASF) [SEQ ID NO.: 111, protein kinase A synthetic substrate]”, in the data set with protein kinase A, the Km is 13 µM.
In the case of “R R A S I (RRASI) [SEQ ID NO.: 112, protein kinase A synthetic substrate]”, in the data set on protein kinase A, the Km is 7 µM.
For the compound “R R A S L G (RRASLG) [SEQ ID NO.: 95, protein kinase A synthetic substrate]”, the Km in the data set on protein kinase A was 26 µM.
Take “R R A S V (RRASV) [SEQ ID NO.: 93, protein kinase A synthetic substrate]”: the Km in the data set on protein kinase A is 24 µM.
For the compound “R R A S V A (RRASVA) [SEQ ID NO.: 92, protein kinase A synthetic substrate]”, the Michaelis constant (Km) with protein kinase A is 20 µM.
As for “R T G R S G S V (RTGRSGSV) [SEQ ID NO.: 106, protein kinase A synthetic substrate]”, the Km in the data set on protein kinase A was 140 µM.
For the compound “R T K R S G S V (RTKRSGSV) [SEQ ID NO.: 99, protein kinase A synthetic substrate]”, the Km in the data set on protein kinase A is 21 µM.
On to “V L Q A R R G S S I P Q (VLQARRGSSIPQ) [SEQ ID NO.: 104, protein kinase A synthetic substrate]”, for which the Km with protein kinase A was 11 µM.
On to “V L Q A R R G T S I P Q (VLQARRGTSIPQ) [SEQ ID NO.: 109, protein kinase A synthetic substrate]”, for which the Km in the data set on protein kinase A was 139 µM.
In the case of “V L Q R R R G S S I P Q (VLQRRRGSSIPQ) [SEQ ID NO.: 97, protein kinase A synthetic substrate]”, the Km in the data set on protein kinase A was 4 µM.
On to “V L Q R R R G T S I P Q (VLQRRRGTSIPQ) [SEQ ID NO.: 108, protein kinase A synthetic substrate]”, for which the Km with protein kinase A was 39 µM.
In the case of “V L Q R R R P T S I P Q (VLQRRRPTSIPQ) [SEQ ID NO.: 110, protein kinase A synthetic substrate]”, in the data set with protein kinase A, the Km is 118 µM.
Take “catalytic subunit of murine protein kinase A (expressed from pFC-PKA, Stratagene)”: the “protein kinase A activity in anti-Flag immunoprecipitates (substrate SEQ ID NO: 59), with against without AGN194204” value in data set [2] is “Immunoprecipitates prepared with anti-Flag antibody showed a dramatic increase in the amount of protein kinase A activity”.
